Read-outs that look alike come from different tables or passages of the source.
Columns and labels:
[1] = test system: SARS-CoV-2-NLuc; assay: microbe, parasite or virus in culture; format: cell-based, SARS Coronavirus 2
[2] = target: SARS-CoV-2 main protease (Severe acute respiratory syndrome coronavirus 2 (2019-nCoV) (SARS-CoV-2), UniProt P0DTD1); assay: activity comparison of separated atropisomers (assay not given); settings: Isomer 1 versus Isomer 2 after chiral SFC separation; used to assign stereochemistry by analogy to Example 438
[3] = target: recombinant SARS-CoV-2 Main protease (Mpro) (Severe acute respiratory syndrome coronavirus 2 (2019-nCoV) (SARS-CoV-2), UniProt P0DTD1); assay: Cov Mpro Biochemical IC50 Assay; settings: read-out: MPro IC50
[4] = recombinant SARS-CoV-2 Mpro 7.5 nM, fluorogenic peptide substrate 40 μM
[5] = Severe acute respiratory syndrome coronavirus, 48 h, read-out: MPro EC50

SMILES	EC50 ([1]; read-out: MPro EC50) [nM]	relative activity of the two separated isomers [2]	IC50 [3, 4] [nM]	EC50 [1, 5] [nM]	EC50 ([1]; Severe acute respiratory syndrome coronavirus, 48 h; read-out: MPro EC50) [nM]	IC50 ([3]; recombinant SARS-CoV-2 Mpro, fluorogenic peptide substrate) [nM]
Cn1cnc(Cn2c(=O)n(-c3cncc4ccccc34)c(=O)c3sc(-c4ccccc4Cl)cc32)n1 (single isomer, unassigned) [Example 477, 6-(2-chlorophenyl)-3-(4-isoquinolyl)-1-[(1-methyl-1,2,4-triazol-3-yl)methyl]thieno[3,2-d]pyrimidine-2,4-dione]	165	more active isomer	58	–	–	–
O=c1[nH]c2cc(-c3ccccc3Cl)sc2c(=O)n1-c1cncc2ccc(N3CCOCC3)cc12 (single isomer, unassigned) [Example 442, 6-(2-chlorophenyl)-3-(6-morpholinoisoquinolin-4-yl)thieno[3,2-d]pyrimidine-2,4(1H,3H)-dione]	12.3	more active isomer	< 3.43	–	–	–
COc1ccc2cncc(-n3c(=O)[nH]c4cc(-c5ccccc5Cl)sc4c3=O)c2c1 (single isomer, unassigned) [Example 440, 6-(2-chlorophenyl)-3-(6-methoxyisoquinolin-4-yl)thieno[3,2-d]pyrimidine-2,4(1H,3H)-dione]	13.4	more active isomer	< 3.94	–	–	–
COc1ccc(Cl)c(-c2cc3[nH]c(=O)n(-c4cncc5cccnc45)c(=O)c3s2)c1 (single isomer, unassigned) [Example 468, 6-(2-chloro-5-methoxyphenyl)-3-(1,6-naphthyridin-8-yl)thieno[3,2-d]pyrimidine-2,4(1H,3H)-dione]	< 6.34	more active isomer	< 2.54	–	–	–
O=c1[nH]c2cc(-c3ccccc3Cl)sc2c(=O)n1-c1cncc2cccnc12 (single isomer, unassigned) [Example 464, 6-(2-chlorophenyl)-3-(1,6-naphthyridin-8-yl)thieno[3,2-d]pyrimidine-2,4(1H,3H)-dione]	11.5	more active isomer	4.68	–	–	–
Cn1cc(-c2cccc(Cl)c2-c2cc3[nH]c(=O)n(-c4cncc5ccccc45)c(=O)c3s2)c(C(F)(F)F)n1 (single isomer, unassigned) [Example 447, 6-(2-chloro-6-(1-methyl-3-(trifluoromethyl)-1H-pyrazol-4-yl)phenyl)-3-(isoquinolin-4-yl)thieno[3,2-d]pyrimidine-2,4(1H,3H)-dione]	6.58	more active isomer	4.21	–	–	–
COc1ccc(Cl)c(-c2cc3[nH]c(=O)n(-c4cncc5ccccc45)c(=O)c3s2)c1 (single isomer, unassigned) [Example 465, 6-(2-chloro-5-methoxyphenyl)-3-(isoquinolin-4-yl)thieno[3,2-d]pyrimidine-2,4(1H,3H)-dione]	5.23	more active isomer	< 3.56	–	–	–
COc1ccc(Cl)c(-c2ccc3c(=O)n(-c4cncc5ccccc45)c(=O)[nH]c3c2)c1 (single isomer, unassigned) [Example 475, 7-(2-chloro-5-methoxy-phenyl)-3-(4-isoquinolyl)-1H-quinazoline-2,4-dione]	28.5	more active isomer	17.1	–	–	–
Cc1nn(C)cc1-c1cccc(Cl)c1-c1cc2[nH]c(=O)n(-c3cncc4ccccc34)c(=O)c2s1 [Example 518, 6-[2-chloro-6-(1,3-dimethylpyrazol-4-yl)phenyl]-3-(4-isoquinolyl)-1H-thieno[3,2-d]pyrimidine-2,4-dione]	–	–	9.15	5.49	–	–
COc1cc(-c2cc3[nH]c(=O)n(-c4cncc5ccccc45)c(=O)c3cc2OC)c(Cl)cc1F [Example 672, 7-(2-chloro-4-fluoro-5-methoxyphenyl)-3-(isoquinolin-4-yl)-6-methoxyquinazoline-2,4(1H,3H)-dione]	–	–	37.8	23.8	–	–
COc1ccc(Cl)c(-c2ccc3c(=O)n(-c4cncc5ccc(N6CCOCC6)cc45)c(=O)[nH]c3c2)c1 [Example 430]	–	–	11.8	–	18.5	–
O=c1[nH]c2cc(-c3ccccc3Cl)ccc2c(=O)n1-c1cncnc1 [Example 123]	–	–	–	47000	–	> 100000
COc1ccc2cncc(-n3c(=O)[nH]c4cc(-c5ccccc5Cl)sc4c3=O)c2c1 (single isomer, unassigned) [Example 441, 6-(2-chlorophenyl)-3-(6-methoxyisoquinolin-4-yl)thieno[3,2-d]pyrimidine-2,4(1H,3H)-dione]	239	–	109	–	–	–
COc1cc(-c2cc3[nH]c(=O)n(-c4cncc5ccccc45)c(=O)c3cc2OC)c(Cl)cc1F (single isomer, unassigned) [Example 1054, 7-(2-chloro-4-fluoro-5-methoxyphenyl)-3-(isoquinolin-4-yl)-6-methoxyquinazoline-2,4(1H,3H)-dione]	15.5	–	34.6	–	–	–
